Results from patent publication US9050334B2, “MIF inhibitors and their uses” (INNOV88 LLC, priority 2010, dated 2015).

Tests used:
Native human MIF = molecular target: T1, Native human MIF (Homo sapiens, UniProt P14174); assay: MIF tautomerase activity assay with hydroxyphenyl pyruvic acid (HPP) substrate; type: biochemical; settings: absorbance at 300 nm
T1 sequence (P14174 2-115 limits assumed): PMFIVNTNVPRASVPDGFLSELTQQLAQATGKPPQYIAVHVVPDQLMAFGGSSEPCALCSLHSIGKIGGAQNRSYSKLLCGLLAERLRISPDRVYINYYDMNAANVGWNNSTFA
Description: The ability of candidate compounds to inhibit this tautomerase activity are quantitated by using hydroxyphenyl pyruvic acid (HPP) as a substrate (Ouertatani-Sakouhi et al., 2010). The ability of compounds to inhibit the tautomerase activity can be quantitated by following the increase in absorbance due to the enzymatic formation of the HPP enol-borate complex at 300 nm in the absence and presence of a test compound. The IC50 value of compounds are determined by plotting the initial velocities determined at 300 nm as a function of a test compound's concentration. Assays are carried out in a 96 or 384 well plate format. Representative MIF inhibitors were tested in the assay described above and the results tabulated in Table 1 wherein “A” represents≦10 μM; “B” represents>10 μM and <100 μM; “C” represents>100 μM and ≦200 μM; and “D” represents>200 μM.

LPS-stimulated PBMCs = assay: TNF-α production in LPS-stimulated PBMCs; type: cell-based; settings: PBMC; human PBMCs, 25 μM compound preincubated 1 hour, LPS stimulation, 24 hours
Description: (§1) Effect of Candidate Compounds on Cytokine Production from Human Cells: Mono-Mac-6 Cells: The cellular efficacy of the inhibitors is determined using the human monocytic cell line, Mono-Mac-6 cells (MM6 cells) as it has been shown that MIF induces the production of inflammatory mediators, including tumor necrosis factor-α (TNF-α) interleukin (IL)-1β, IL-6, IL-8, interferon-γ (IFN-γ) and prostaglandin E2 (PGE2) in these cells (Schwartz et al., 2009). Recombinant human MIF (rhMIF) will be purchased from R&D Systems (Minneapolis, Minn.) or generated in house. To induce the production of inflammatory mediators, MM6 cells will be plated at a final concentration of 5×10^5 cells/ml in RPMI 1640 medium containing 1% heat-inactivated low-pyrogen fetal bovine serum, 2 mM GlutaMAX-1,1% non-essential amino acids, 1% sodium pyruvate, 100 units/ml penicillin G and 100 μg/ml streptomycin (Gibco BRL Life Technologies). Cells will be stimulated with 100 ng/ml rhMIF with or without inhibitor for 20 h at 37° C. with 5% CO2. The supernatants were stored at −20° C. until they were assayed. The levels of inflammatory mediators will be determined using commercial ELISA kits from R&D Systems (Minneapolis, Minn.). Human Periperal Blood Mononuclear Cells (PBMC): Human whole blood is collected from healthy donors in sodium-heparinized tubes (BD Biosciences), and peripheral blood mononucleated cells (PBMC) are isolated by Ficoll separation. Cells are washed in Dulbecco's phosphate-buffered saline, resuspended in media (DMEM) containing 5% low endotoxin (<0.3 EU/ml) fetal Bovine Serum (FBS, GIBCO) and 10 units/ml penicillin/streptomycin, and plated at 5×10^5 cells/well in 96-well tissue culture plates. Lipopolysaccharide (LPS, E. coli Serotype 0111:B4, Sigma) or macrophage migration inhibitory factor are pre-incubated for 15 minutes with compounds dissolved in dimethyl sulfoxide (DMSO). The mixtures are then added to cells to yield final concentrations of 1% DMSO, 100 ng/ml LPS and 1 μg/ml MIF. Cells are incubated for overnight at 37° C., 5% CO2. TNF-α production is measured by ELISA (R&D Systems). Cytotoxicity is assessed using the MTT [3-(4,5-dimethylthiazol-2-yl)-2,5-diphenyl tetrazolium bromide assay. Human Rheumatoid Arthritis Synovial Fibroblast (RASF) Cell Line: RASF cells are derived from the inflamed synovium of a RA patient who was undergoing total knee replacement. Cells are cultured in Dulbecco's modified Eagle's medium with 15% FBS, 1% glutamine, and 1% penicillin/streptamycin (all from Gibco (Invitrogen), Gaithersburg, Md.). Experiments are performed with cells between passages 7 to 10, using trypsin with 0.25% ethylene diamine tetraacetic acid (EDTA)(Gibco) to detach cells. Interleukin 1 or macrophage migration inhibitory factor (MIF, GIBCO) are pre-incubated for 15 minutes with compounds dissolved in dimethyl sulfoxide (DMSO). The mixtures are then added to cells to yield final concentrations of 1% DMSO, 1 ng/ml Interleukin 1 or 1 μg/ml MIF. RASFs are incubated with or without stimuli at 37° C. for 20 h for induction of Interelukin 6. Interleukin 6 levels in culture supernatants are quantitated by ELISA. Representative MIF inhibitors were tested in the assay described above, specifically, human peripheral blood mononuclear cells [PBMCs] were isolated and stimulated with either LPS or rhMIF.

rhMIF-stimulated PBMCs [1] = assay: TNF-α production in rhMIF-stimulated PBMCs; type: cell-based; settings: PBMC; human PBMCs, 25 μM compound preincubated 1 hour, rhMIF stimulation, 24 hours
Description: as §1, with “Interleukin 1 or macrophage migration inhibitory factor (MIF, GIBCO) are pre-incubated for 15 minutes with compounds dissolved in dimethyl sulfoxide (DMSO). The mixtures are then added to cells to yield final concentrations of 1% DMSO, 1 ng/ml Interleukin 1 or 1 μg/ml MIF. RASFs are incubated with or without stimuli at 37° C. for 20 h for induction of Interelukin 6.” left out, “Representative MIF inhibitors were tested in the assay described above, specifically, human peripheral blood mononuclear cells [PBMCs] were isolated and stimulated with either LPS or rhMIF.” left out

rhMIF-stimulated PBMCs [2] = assay: IL-6 production in rhMIF-stimulated PBMCs; type: cell-based; settings: PBMC; human PBMCs, 25 μM compound preincubated 1 hour, rhMIF stimulation, 24 hours
Description: Effect of Candidate Compounds on Cytokine Production from Human Cells: Mono-Mac-6 Cells: The cellular efficacy of the inhibitors is determined using the human monocytic cell line, Mono-Mac-6 cells (MM6 cells) as it has been shown that MIF induces the production of inflammatory mediators, including tumor necrosis factor-α (TNF-α) interleukin (IL)-1β, IL-6, IL-8, interferon-γ (IFN-γ) and prostaglandin E2 (PGE2) in these cells (Schwartz et al., 2009). Recombinant human MIF (rhMIF) will be purchased from R&D Systems (Minneapolis, Minn.) or generated in house. To induce the production of inflammatory mediators, MM6 cells will be plated at a final concentration of 5×10^5 cells/ml in RPMI 1640 medium containing 1% heat-inactivated low-pyrogen fetal bovine serum, 2 mM GlutaMAX-1,1% non-essential amino acids, 1% sodium pyruvate, 100 units/ml penicillin G and 100 μg/ml streptomycin (Gibco BRL Life Technologies). Cells will be stimulated with 100 ng/ml rhMIF with or without inhibitor for 20 h at 37° C. with 5% CO2. The supernatants were stored at −20° C. until they were assayed. The levels of inflammatory mediators will be determined using commercial ELISA kits from R&D Systems (Minneapolis, Minn.). […] Cytotoxicity is assessed using the MTT [3-(4,5-dimethylthiazol-2-yl)-2,5-diphenyl tetrazolium bromide assay. […] Interleukin 6 levels in culture supernatants are quantitated by ELISA. […]

Structure (SMILES): Cn1c(=O)c(C#N)c(N2CCC(C(=O)c3cccs3)CC2)c2ccccc21 [Compound IV, 1-methyl-2-oxo-4-[4-(thiophen-2-ylcarbonyl)piperidin-1-yl]-1,2-dihydroquinoline-3-carbonitrile]
- IC50 (Native human MIF): 100 to 200 µM
- inhibition at 25 µM (LPS-stimulated PBMCs): 10 to 50%

Structure (SMILES): Cn1c(=O)c(C#N)c(N2CCC(NC(=O)c3cccs3)CC2)c2ccccc21 [Compound VIII, N-[1-(3-cyano-1-methyl-2-oxo-1,2-dihydroquinolin-4-yl)piperidin-4-yl]thiophene-2-carboxamide]
- IC50 (Native human MIF): ≤ 10 µM
- inhibition at 25 µM (LPS-stimulated PBMCs): 10 to 50%

Structure (SMILES): Cn1c(=O)c(C#N)c(N2CC(C(=O)c3cccs3)C2)c2ccccc21 [Compound V]
- IC50 (Native human MIF): 10 to 100 µM
- inhibition at 25 µM (LPS-stimulated PBMCs): > 70%

Structure (SMILES): Cn1c(=O)c(C#N)c(N2CCC(C(=O)O)CC2)c2ccccc21 [Compound X, 1-(3-cyano-1-methyl-2-oxo-1,2-dihydroquinolin-4-yl)piperidine-4-carboxylic acid]
- IC50 (Native human MIF): > 200 µM

Structure (SMILES): Cn1c(=O)c(C#N)c(N2CCC(C(=O)NCc3ccncc3)CC2)c2ccccc21 [Compound XI, 1-(3-cyano-1-methyl-2-oxo-1,2-dihydroquinolin-4-yl)N-(pyridin-4-ylmethyl)piperidine-4-carboxamide]
- IC50 (Native human MIF): > 200 µM

Structure (SMILES): Cn1c(=O)c(C#N)c(N2CC(C(=O)NCc3ccncc3)C2)c2ccccc21 [Compound XIX, 1-(3-cyano-1-methyl-2-oxo-1,2-dihydroquinolin-4-yl)-N-(pyridin-4-ylmethyl)azetidine-3-carboxamide]
- IC50 (Native human MIF): ≤ 10 µM

Structure (SMILES): Cn1c(=O)c(C#N)c(N2CCC(C(=O)Nc3ccn[nH]3)CC2)c2ccccc21 [Compound XV]
- IC50 (Native human MIF): ≤ 10 µM

Structure (SMILES): Cn1c(=O)c(C#N)c(N2CC(NC(=O)c3cccs3)C2)c2ccccc21 [Compound XXI, N-[1-(3-cyano-1-methyl-2-oxo-1,2-dihydroquinolin-4-yl)azetidin-3-yl]thiophene-2-carboxamide]
- IC50 (Native human MIF): 10 to 100 µM
- inhibition at 25 µM (rhMIF-stimulated PBMCs [1]): 10 to 50%
- inhibition at 25 µM (LPS-stimulated PBMCs): ≤ 10%
- inhibition at 25 µM (rhMIF-stimulated PBMCs [2]): 10 to 50%

Structure (SMILES): Cn1c(=O)c(C#N)c(NC2CN(S(C)(=O)=O)C2)c2ccccc21 [Compound XXVI, 1-methyl-4-(1-(methylsulfonyl)azetidin-3-ylamino)-2-oxo-1,2-dihydroquinoline-3-carbonitrile]
- IC50 (Native human MIF): 10 to 100 µM

Structure (SMILES): N#Cc1c(N2CCC(C(=O)c3cccs3)CC2)c2ccccc2n(Cc2ccc(F)cc2)c1=O [Compound XXVIII, 1-(4-fluorobenzyl)-2-oxo-4-[4-(thiophen-2-ylcarbonyl)piperidin-1-yl]-1,2-dihydroquinoline-3-carbonitrile]
- IC50 (Native human MIF): 100 to 200 µM
- inhibition at 25 µM (LPS-stimulated PBMCs): 10 to 50%

Structure (SMILES): Cn1c(=O)c(C#N)c(NC2CCN(S(C)(=O)=O)CC2)c2ccccc21 [Compound XXV]
- IC50 (Native human MIF): > 200 µM

Structure (SMILES): Cn1c(=O)c(C#N)c(N2CCC(C(=O)NCCO)CC2)c2ccccc21 [XIII]
- IC50 (Native human MIF): > 200 µM

Structure (SMILES): CN(C)C(=O)C1CCN(c2c(C#N)c(=O)n(C)c3ccccc23)CC1 [XII]
- IC50 (Native human MIF): > 200 µM

Structure (SMILES): Cn1c(=O)c(C#N)c(N2CCC(C(=O)Nc3nccs3)CC2)c2ccccc21 [XIV]
- IC50 (Native human MIF): ≤ 10 µM

Structure (SMILES): Cn1c(=O)c(C#N)c(NC2CCN(C(=O)c3cccs3)CC2)c2ccccc21 [XVII-1, 1-methyl-2-oxo-4-{[1-(thiophen-2-ylcarbonyl)piperidin-4-yl]amino}-1,2-dihydroquinoline-3-carbonitrile]
- IC50 (Native human MIF): ≤ 10 µM
- inhibition at 25 µM (LPS-stimulated PBMCs): 50 to 70%

Structure (SMILES): Cn1c(=O)c(C#N)c(NC2CN(C(=O)c3cccs3)C2)c2ccccc21 [XXIV, 1-methyl-2-oxo-4-(1-(thiophene-2-carbonyl)azetidin-3-ylamino)-1,2-dihydroquinoline-3-carbonitrile]
- IC50 (Native human MIF): ≤ 10 µM
- inhibition at 25 µM (rhMIF-stimulated PBMCs [1]): > 70%
- inhibition at 25 µM (LPS-stimulated PBMCs): 50 to 70%
- inhibition at 25 µM (rhMIF-stimulated PBMCs [2]): 10 to 50%

Structure (SMILES): N#Cc1c(NC2CCN(C(=O)c3cccs3)CC2)c2ccccc2n(Cc2ccc(F)cc2)c1=O [XXXIII]
- IC50 (Native human MIF): ≤ 10 µM
- inhibition at 25 µM (LPS-stimulated PBMCs): 50 to 70%

Structure (SMILES): N#Cc1c(NC2CN(S(=O)(=O)c3cccs3)C2)c2ccccc2n(Cc2ccc(F)cc2)c1=O [XXXIV, 1-(4-fluorobenzyl)-2-oxo-4-(1-(thiophen-2-ylsulfonyl)azetidin-3-ylamino)-1,2-dihydroquinoline-3-carbonitrile]
- IC50 (Native human MIF): > 200 µM

Structure (SMILES): N#Cc1c(N2CC(C(=O)c3cccs3)C2)c2ccccc2n(Cc2ccc(F)cc2)c1=O [XXXVIII]
- IC50 (Native human MIF): 100 to 200 µM

Structure (SMILES): N#Cc1c(NC2CN(C(=O)c3cncnc3)C2)c2ccccc2n(Cc2ccc(F)cc2)c1=O [XXXVII]
- IC50 (Native human MIF): 10 to 100 µM

Structure (SMILES): N#Cc1c(NC2CN(C(=O)c3cccs3)C2)c2ccccc2n(Cc2ccc(F)cc2)c1=O [XXXVI]
- IC50 (Native human MIF): ≤ 10 µM
- inhibition at 25 µM (rhMIF-stimulated PBMCs [1]): > 70%

Structure (SMILES): N#Cc1c(NC2CN(C(=O)c3ccncc3)C2)c2ccccc2n(Cc2ccc(F)cc2)c1=O [XXXV]
- IC50 (Native human MIF): ≤ 10 µM
- inhibition at 25 µM (rhMIF-stimulated PBMCs [1]): 10 to 50%
